Measured values: patent US20020052390A1, “METHODS AND MATERIALS FOR TREATING AND PREVENTING INFLAMMATION OF MUCOSAL TISSUE” (priority 1997, published 2002)
Values after ≈ are worked out from the molar mass of the structure shown. Values joined by “and” are separate entries in the source; they are usually repeats but may differ in a detail not shown here. Identical values can stand only once. Like-named read-outs stand apart in the source and are kept apart here.

Experiments:
[1] = system: patients with chronic asthma; test: Chronic asthma symptoms in patients of the Example 2 study (Example 5); assay type: in vivo, human
Procedure: One hundred and thirty-two consecutive rhinosinusitis patients were entered into a study to evaluate the use of an antifungal agent to treat non-invasive fungus-induced rhinosinusitis. […] The 125 non-invasive fungus-induced rhinosinusitis patients were started on an antifungal treatment of about 20 mL of an amphotericin B solution per nostril, two to four times daily for at least three months. The concentration of the amphotericin B solution was about 100 mg per liter of saline or water. A 20 mL bulb was used by the patient to mucoadminister the amphotericin B solution into the patient's nasal-paranasal anatomy. Data were compiled for 53 of the patients who had returned for their three month follow-up analysis.

Trichoderma = test: MIC, macro broth dilution technique (NCCLS), isolates from rhinosinusitis patients; assay type: cell-based; details: 48 hour MIC reading
Procedure: (§1) The following procedure was used to determine effective antifungal agents as well as effective concentrations of antifungal agents such that the fungal organisms isolated from patients can be prevented from growing or killed.
(§2) Seventeen fungal isolates were collected from eight rhinosinusitis patients and tested for susceptibility against amphotericin B, ketoconazole, and itraconazole. Each antifungal agent was tested on these fungal isolates using the macro broth dilution technique according to the National Committee on Clinical Laboratory Standards (NCCLS) protocol. […] The results from this procedure provided an estimate of the efficacy of antifungal agents against specific fungal isolates in vitro.

Geotrichum = test: as above; assay type: cell-based; details: 48 hour MIC reading
Procedure: as §1, §2

[2] = system: non-invasive fungus-induced rhinosinusitis patients; test: Amphotericin B nasal irrigation study, three month follow-up (Example 2); assay type: in vivo, human
Description: In addition to patient interviewing, CT scan analysis, visual examination, and fungal culture analysis, two types of evaluations were used to score the success of the treatment: an endoscopic evaluation and a patient symptom evaluation.

[3] = system: patient with rhinosinusitis; test: Single patient study, one-sided then two-sided amphotericin B irrigation, RAST assay to Alternaria; assay type: in vivo, human
Description: In addition, the previously detected fungal load in the initially untreated side (right side) was sufficient to eventually cause presentation of visual or palpable rhinosinusitis symptoms in that initially untreated side. Further, the fungal organisms present in the initially untreated side (right side) induced high IgE titers, as shown by IgE readings from the RAST assays, independent of concurrent reduction of fungal organisms by antifungal treatment applied to the left side. In this case, a reduction of IgE readings from the RAST assays was only observed after irrigating both sides with an antifungal agent. Thus, the reduction of IgE and the prevention of disease symptoms coincided with the treatment of both sides with an antifungal agent.

[4] = system: non-invasive fungus-induced rhinosinusitis patients; test: Amphotericin B irrigations in patients without previous nasal surgery (Example 3); assay type: in vivo, human
Description: A person was diagnosed with non-invasive fungus-induced rhinosinusitis and instructed to perform amphotericin B irrigations twice a day.
A person was diagnosed with non-invasive fungus-induced rhinosinusitis and instructed to perform amphotericin B irrigations twice a day, which was later increased to four times a day.
A person was diagnosed with non-invasive fungus-induced rhinosinusitis and instructed to perform amphotericin B irrigations twice a day. This patient had been given intramuscular steroid shots every 3 to 8 months with the last shot being administered about seven months prior to starting the amphotericin B irrigations.

[5] = system: non-invasive fungus-induced rhinosinusitis patients; test: Patient data collected during a one week period (amphotericin B nasal irrigations); assay type: in vivo, human; parameters: Endoscopy Score B / Endoscopy Score A / Symptom Score B: scale not given here
Description: In addition to patient interviewing, CT scan analysis, visual examination, and fungal culture analysis, two types of evaluations were used to score the success of the treatment: an endoscopic evaluation and a patient symptom evaluation. These evaluations were scored as follows:
Only previously seen patients that were instructed to use the antifungal amphotericin B nasal irrigations were entered into this study.
During a one week period, twenty patients returned to the physician's office (Table II). The average age of the returning patients was 47 years (range 16-74 years). The patients were using the amphotericin B irrigations for an average duration of about six months (range 1-16 months). […] In addition, some patients were using topical and systemic steroid therapy. Further, some patients were using an antibiotic nasal irrigation in addition to the antifungal irrigations. The antibacterial solution contained 80 mg gentamicin per L saline (Wilson's solution). Some patients mixed the antibacterial solution with the antifungal solution and then performed the nasal irrigations while others used each solution separately in a sequential manner. Some patients also had other diseases including asthma (15 of the 20 patients) and colitis (2 of the 20 patients).

[6] = system: fungal organisms within their mucus; test: Analysis of mucus samples of non-responding patients for resistance; assay type: cell-based; details: five of the nine non-responding patients
Description: Eleven of the 53 patients went from endoscopic evaluation stage 2 or 3 to stage 1 after three months. […] Five of the nine non-responding patients had previously collected mucus samples that were available for examination.

[7] = system: non-invasive fungus-induced rhinosinusitis patients; test: Itraconazole nasal irrigation (Example 7); assay type: in vivo, human; details: for adverse local reaction to nasal irrigations: third patient
Procedure: Three non-invasive fungus-induced rhinosinusitis patients (person, person, and person) were instructed to perform nasal irrigation with an itraconazole solution. The itraconazole solution contained about 100 mg of itraconazole per L of solution (10% PEG-400 in sterile water) and was prepared as described herein. […] Each patient reported marked improvement in symptoms within two weeks of starting the itraconazole irrigations (symptom scores: -1 to +2 and -1 to +1).
After treatment with itraconazole, that patient reported symptom improvement (symptom score: from -1 to 0).

[8] = system: non-invasive fungus-induced rhinosinusitis patient; test: Eosinophil count in mucosal biopsies after amphotericin B irrigations (Example 4); assay type: in vivo, human
Description: A person was diagnosed with non-invasive fungus-induced rhinosinusitis and instructed to perform amphotericin B irrigations twice a day. After nine months of amphotericin B irrigations, the patient underwent sinus surgery for further improvement. During the surgery mucosal biopsies were collected and the eosinophil count compared to the those obtained from biopsies collected from the patient during a surgery prior to the antifungal treatment.

Candida = test: MIC, macro broth dilution technique (NCCLS), isolates from rhinosinusitis patients; assay type: cell-based; details: 48 h, 48 hour MIC reading, each table line is one isolate
Procedure: as §1, §2

Cladosporium = test: as above; assay type: cell-based; details: 48 h, 48 hour MIC reading, each table line is one isolate
Procedure: as §1, §2

Penicillium = test: as above; assay type: cell-based; details: 48 h, 48 hour MIC reading, each table line is one isolate
Procedure: as §1, §2

[9] = system: patient with asthma symptoms; test: Itraconazole nasal irrigation in an asthma patient, pulmonary function (Example 8); assay type: in vivo, human; details: before antifungal treatment
Procedure: Sputum and nasal-paranasal mucus samples were collected and analyzed.
The concentration of the itraconazole solution was about 100 mg per liter. After a few weeks, the patient took their last course of systemic steroids. About two months after stopping the systemic steroids, the patient also stopped using the topical steroids as well as the bronchodilator.

[10] = Concentrations of itraconazole in solution by HPLC; assay type: physicochemical; details: read-out: Soluble Itraconazole Concentration
Procedure: Itraconazole formulations were made by dissolving itraconazole into polyethylene glycol (PEG) to form an itraconazole stock solution. […] Typically, PEG 400 was used to dissolve the itraconazole. Once dissolved, the stock solution was filtered to remove any insoluble material. Then, the stock solution was prepared for use by dilution with sterile water. […] One liter of heated (70° C.) PEG-400 was added to the graduated cylinder containing the itraconazole. The mixture was then placed onto a stirring hot plate and maintained at 70° C. for 30 minutes. After 30 minutes, the hot suspension was filtered through a urine stone filter into a glass container and allowed to cool to room temperature. Once cooled, 100 mL of the filtered solution was placed into an empty plastic bottle. Then, 900 mL of sterile water was added and the solution mixed. Once mixed, one drop of flavoring was added (peppermint oil). […] The following concentrations of itraconazole were determined for each indicated solution by HPLC (Table III).

[11] = Oral itraconazole capsule, drug remaining in the bowel lumen (Example 10); assay type: in vivo, human; details: 100 mg capsule before bedtime, two hours after last meal, without cola
Description: Three out of five consecutive patients with chronic rhinosinusitis reported having a history of colitis. […] Each patient was instructed to take the capsule before bedtime a minimum of two hours after their last meal and without any cola. Food and cola beverages increase absorption of the drug.

[12] = patient symptom evaluation after treatment, 53 patients
[13] = after antifungal treatment (1-16 months, 1-2 x day), each table line is one patient
[14] = before antifungal treatment, each table line is one patient
[15] = sixteen days after starting the itraconazole irrigations

C[C@@H]1[C@H](O)[C@@H](C)/C=C/C=C/C=C/C=C/C=C/C=C/C=C/[C@H](O[C@@H]2O[C@H](C)[C@@H](O)[C@H](N)[C@@H]2O)C[C@@H]2O[C@](O)(C[C@@H](O)C[C@@H](O)[C@H](O)CC[C@@H](O)C[C@@H](O)CC(=O)O[C@H]1C)C[C@H](O)[C@H]2C(=O)O [Amphotericin B, amphotericin B]
asthmatic patients declaring an improvement or complete elimination of asthma symptoms ([1]; after three months of antifungal treatment, 37 asthmatic patients): 28 of the 37
patients with improved pulmonary function (pulmonary function test before and after) ([1]; four patients tested): all four
patients who stopped taking their asthma medication ([1]; of the 28 patients no longer exhibiting asthma symptoms): 26 of the 28
MIC (Trichoderma): 4 µg/mL (≈ 4.33 µM)
MIC (Geotrichum): 0.1 µg/mL (≈ 0.108 µM)
patients who went from endoscopic evaluation stage 2 or 3 to stage 0 ([2]; about 20 mL amphotericin B solution (about 100 mg per liter) per nostril, two to four times daily, after three months, 53 patients): 33 of the 53
CT scan finding ([2]; one patient with bilateral rhinosinusitis, 20 mL (100 mg/L) per nostril two times daily, after four months): complete disappearance of opacity and symptoms characteristic of rhinosinusitis
patients giving themselves symptom stage 0 [2, 12]: six of the 53
patients giving themselves symptom stage 1 [2, 12]: three of the 53
patients giving themselves symptom stage 2 [2, 12]: 44 of the 53
patients who did not respond to the treatment (endoscopic evaluation) ([2]; same regimen, after three months, 53 patients): nine
number of different fungal species in mucus after treatment ([2]; several patients, mucus cultured before and after antifungal treatment): remarkably reduced
RAST reading to Alternaria ([3]; after right-side surgery and treatment of both sides for about seven weeks): 4.47 KU/L
clinical status ([3]; after treatment of both sides for about seven weeks): symptom-free
endoscopic score after treatment ([4]; amphotericin B irrigations twice (to four times) a day for four to sixteen months): 0
symptom score before treatment ([4]; patients without previous nasal surgery): −1
Endoscopy Score A [5, 13]: 0 (10×) and 3 (5×) and 1 (2×)
Symptom Score A [5, 13]: +1 (6×) and +2 (6×) and 0 (6×) and −2 and 1
Endoscopy Score B [5, 14]: 1 (3×) and 2 (5×) and 3 (10×) and 0
Symptom Score B [5, 14]: −1 (14×) and −2 (6×)
endoscopic evaluation of rhinosinusitis condition ([5]; most of twenty patients): observable improvement
susceptibility of fungal organisms in mucus of non-responding patients [6]: resistant
adverse local reaction to nasal irrigations [7]: burning sensation
eosinophil count in mucosal biopsies ([8]; all the sinuses except the frontal, after nine months of irrigations twice a day): < 5%
eosinophil count in the frontal sinus biopsy ([8]; frontal sinus (obstructed, irrigation presumably did not reach it), after nine months): 10%

CCC(C)n1ncn(-c2ccc(N3CCN(c4ccc(OCC5COC(Cn6cncn6)(c6ccc(Cl)cc6Cl)O5)cc4)CC3)cc2)c1=O (centres unmarked) [Itraconazole, itraconazole]
MIC (Candida): 0.03 µg/mL (≈ 0.0425 µM)
MIC (Cladosporium): 0.125 µg/mL (≈ 0.177 µM)
MIC (Penicillium): 0.5 µg/mL (≈ 0.709 µM)
forced expiratory volume in 1 second (FEV1) before treatment [9]: 3.34 L
forced vital capacity (FVC) before treatment [9]: 3.99 L
maximal forced expiratory flow (FEFmax) before treatment [9]: 9.1 liter per second
maximum voluntary ventilation (MVV) before treatment [9]: 119 liter per minute
solubility ([10]; PEG-400, organic solvent or mixture, 500 mg Itraconazole powder AS into 250 mL PEG-400 (stock solution)): 1950 µg/mL (≈ 2760 µM)
solubility at 30 min ([10]; PEG-400, organic solvent or mixture, 2000 mg Itraconazole from capsules into 1 L PEG-400 (stock solution)): 1840 µg/mL (≈ 2610 µM)
solubility ([10]; PEG-400/sterile water solution, aqueous with cosolvent or surfactant or cyclodextrin, kinetic from dmso stock, 100 mL capsule stock solution diluted with 900 mL sterile water): 113 µg/mL (≈ 160 µM)
solubility ([10]; PEG-400/sterile water solution, aqueous with cosolvent or surfactant or cyclodextrin, kinetic from dmso stock, 100 mL capsule stock solution plus 25 mL PEG-400 diluted with 875 mL sterile water): 155 µg/mL
solubility ([10]; PEG-400/sterile water solution, aqueous with cosolvent or surfactant or cyclodextrin, kinetic from dmso stock, 100 mL capsule stock solution plus 150 mL PEG-400 diluted with 750 mL sterile water): 179 µg/mL
solubility ([10]; PEG-400/sterile water solution, aqueous with cosolvent or surfactant or cyclodextrin, kinetic from dmso stock, 100 mL powder AS stock solution diluted with 900 mL sterile water): 85 µg/mL (≈ 120 µM)
itraconazole that should remain in the bowel lumen [11]: about 50%
symptom score before itraconazole irrigations ([7]; itraconazole solution about 100 mg per L (10% PEG-400 in sterile water)): -1
endoscopic score, left side, before ([7]; one patient): 1
endoscopic score, right side, before ([7]; one patient): 1
endoscopic score, left side, after [7, 15]: 1
endoscopic score, right side, after [7, 15]: 0
adverse local reaction to nasal irrigations [7]: did not have any adverse local reaction

CC(=O)N1CCN(c2ccc(OCC3COC(Cn4ccnc4)(c4ccc(Cl)cc4Cl)O3)cc2)CC1 (centres unmarked) [Ketoconazole, ketoconazole]
MIC (Trichoderma; read-out: MIC): 50 µg/mL (≈ 94.1 µM)
MIC (Geotrichum; read-out: MIC): 0.05 µg/mL (≈ 0.0941 µM)
